The values that follow are results of earlier work, collected in patent US20230312703A1, “Method of Treating Psoriasis with IL-23 Specific Antibody” (Janssen Biotech, Inc., priority 2022, published 2023).

Several values for one entry are separate records, joined by “and”; a condition that tells them apart may be missing. Equal entries are not always repeated. Where two headings read alike, the source gives them in different places.

Series [1] relates to participants with psoriasis. The note with it: Week 16; VOYAGE 2.
In series [2] the test system is participants with psoriasis.
The subject of series [3] is participants with psoriasis. This is another data set of the same source.
Series [4] concerns participants with psoriasis. The note with it: Week 16, VOYAGE 1 & 2.
In series [5] the test system is participants with psoriasis. The note with it: ADVANCE (apremilast arm of cross-study comparison).
The subject of series [6] is participants with psoriasis. The note with it: Week 16; ESTEEM1.
The subject of series [7] is participants with psoriasis. The note with it: Week 16; ESTEEM2.

“Guselkumab: fully human IgG1 lambda monoclonal antibody that binds the p19 subunit of human IL-23; heavy chain SEQ ID NO: 9, light chain SEQ ID NO: 10”: the “Proportion of participants who achieve a PASI 90 response” value in series [1] was 70.0% vs 2.4%. Also, in series [2] (DISCOVER 1 & 2 (guselkumab arm of cross-study comparison)), the “Proportion of participants who achieve an Static Physician Global Assessment (sPGA) score of 0 or 1 with at least ≥2 grade improvement from baseline at Week 16 (BSA 2-15%)” value is reported as 55.7%. Further, the “Proportion of participants who achieve an IGA score of 0 or 1 with ≥2 grade improvement from baseline (BSA 3-15%)” value in series [2] (Week 16, DISCOVER 1 & 2, BSA 3-15%) is on record as 55.7% vs 12.2%. Moreover, the “Proportion of participants who achieve an IGA score of clear (0) at Week 16 (BSA >=10%)” value in series [3] (VOYAGE 1, BSA >=10%) was 47.7% vs 1.1%. Moreover, in series [3] (Week 16, VOYAGE 1), the “Change in PSSD Symptom score from baseline: Mean (SD)” value is −41.9 (24.61) vs; the “Percent improvement in NAPSI score from baseline: Mean (SD)” value is 34.37 (42.448) vs Percent; the “Proportion of participants who achieve a PASI 90 response” value is 73.3% vs 2.9% and 73.3%; the “Proportion of participants who achieve a PASI 100 response” value is 37.4% vs 0.6%. In series [3] (Week 16, VOYAGE 1), the “Proportion of participants who achieve a ss-IGA score of 0 or 1 with ≥2-grade improvement from baseline among randomized participants with scalp psoriasis and an ss-IGA score ≥2 at baseline” value was 83.4% vs 14.5% and 83.4%; the “Proportion of participants with ≥4-point reduction (improvement) in PSSD Itch score from baseline among participants with a PSSD Itch score ≥4 at baseline” value is recorded as 75.0% vs 5.7%. Further, in series [4], the “Proportion of participants who achieve an IGA score of 0 or 1 with ≥2 grade improvement from baseline (BSA 10-15%)” value is on record as 82.9% vs 9.1%.

Consider `CCOc1cc([C@@H](CS(C)(=O)=O)N2C(=O)c3cccc(NC(C)=O)c3C2=O)ccc1OC` [Apremilast], for which the “Proportion of participants who achieve an Static Physician Global Assessment (sPGA) score of 0 or 1 with at least ≥2 grade improvement from baseline at Week 16 (BSA 2-15%)” value in series [5] is recorded as 21.6%. Besides, the “Proportion of participants who achieve a PASI 90 response” value in series [6] was 9.8%; in series [7], 8.8%. Besides, the “Proportion of participants who achieve a ss-IGA score of 0 or 1 with ≥2-grade improvement from baseline among randomized participants with scalp psoriasis and an ss-IGA score ≥2 at baseline” value in series [6] was 46.5%.
